Experimental data: paper PMC3032881 (Molecular Immunology, 2011)
Peptide text beside a SMILES is read from it.

Assays:
[1] = molecular target: HLA A*0201 on TAP deficient T2 cells (Homo sapiens, UniProt P04439, D140Y/D185E/D98H/E176V/E277Q/G131W/G231S/I119V/I121R/I166T/I218V/L300P/L318F/N151K/N90K/P208A/P217A/Q86G/Q94H/R138H/R169H/T345S); assay: T2-binding assay (cell surface pMHCI stabilization, FACS); format: cell-based
[2] = molecular target: T1, HLA A*0201 (soluble recombinant pMHCI) (Homo sapiens, UniProt P04439, D140Y/D185E/D98H/E176V/E277Q/G131W/G231S/I119V/I121R/I166T/I218V/L300P/L318F/N151K/N90K/P208A/P217A/Q86G/Q94H/R138H/R169H/T345S); assay: Real time SPR pMHC stability assay; format: binding; settings: pMHCI half-life converted from Langmuir dissociation analysis; BIAcore 3000, CM5 chip, ∼500 RUs, 10 μl/min, 15,000 s
T1 construct: made in house

| EC50 [1] [µM] | Half-life [2] [h] | Compound |
| --- | --- | --- |
|  | 5.8 | CC(C)C[C@H](NC(=O)[C@@H](N)Cc1ccc(O)cc1)C(=O)N[C@@H](CCC(=O)O)C(=O)N1CCC[C@H]1C(=O)NCC(=O)N1CCC[C@H]1C(=O)N[C@H](C(=O)N[C@@H](C)C(=O)O)C(C)C (H-YLEPGPVA-OH; N-terminus and C-terminus assumed) |
| 23.9 |  | CC(C)C[C@H](NC(=O)[C@@H](N)C(C)C)C(=O)N[C@@H](CO)C(=O)N[C@@H](CC(N)=O)C(=O)N[C@@H](CC(=O)O)C(=O)N[C@H](C(=O)N[C@@H](CS)C(=O)N[C@@H](C)C(=O)N[C@@H](CCC(N)=O)C(=O)N[C@H](C(=O)O)C(C)C)C(C)C |
| 50 |  | CC[C@H](C)[C@H](NC(=O)[C@@H](N)C(C)C)C(=O)N[C@@H](CO)C(=O)N[C@@H](CC(N)=O)C(=O)N[C@@H](CC(=O)O)C(=O)N[C@H](C(=O)N[C@@H](CS)C(=O)N[C@@H](C)C(=O)N[C@@H](CCC(N)=O)C(=O)N[C@H](C(=O)O)C(C)C)C(C)C (H-VISNDVCAQV-OH) |

| Compound | EC50 [1] [µM] | Half-life [2] [h] |
| --- | --- | --- |
| CC[C@H](C)[C@H](NC(=O)[C@H](Cc1c[nH]c2ccccc12)NC(=O)[C@H](CCSC)NC(=O)[C@H](CC(C)C)NC(=O)[C@H](CC(C)C)NC(=O)[C@@H](N)CO)C(=O)N[C@H](C(=O)N[C@@H](CCC(N)=O)C(=O)N[C@@H](CC(C)C)C(=O)O)[C@@H](C)O | 43.2 |  |
